The experiment concerns the target T1, Regulator of G-protein signaling 8 (Homo sapiens, UniProt P57771).
T1 sequence (P57771 whole entry): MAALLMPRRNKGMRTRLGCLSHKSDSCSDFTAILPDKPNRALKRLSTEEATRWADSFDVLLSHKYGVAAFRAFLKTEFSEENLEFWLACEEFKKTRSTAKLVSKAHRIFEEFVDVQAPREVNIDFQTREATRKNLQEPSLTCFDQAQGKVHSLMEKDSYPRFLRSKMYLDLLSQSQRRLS
The experiment is described as follows: small molecules altering RGS8 binding of Galphao – biochemical, multiplex bead flow cytometry, SAR compounds, SAR follow-up (AID 2307). On the technique in general: In flow cytometry, cells or beads pass a laser one at a time.

pEC50: −log10 of the molar value.

For the molecule `CCN(CC)S(=O)(=O)c1cccc(-c2n[nH]c(=S)n2N=Cc2ccc(C(=O)OC)cc2)c1` [4-[(E)-[3-[3-(diethylsulfamoyl)phenyl]-5-thioxo-1H-1,2,4-triazol-4-yl]iminomethyl]benzoic acid methyl ester], the pEC50 (commonly −log10 of the EC50, conventionally taken in molar units) is 5.50.

`Cc1cccc(N2CCN(C(=O)Cn3sc4nc(C)cc(C)c4c3=O)CC2C)c1` (configuration not stated) [2-[2-keto-2-[3-methyl-4-(m-tolyl)piperazino]ethyl]-4,6-dimethyl-isothiazolo[5,4-b]pyridin-3-one] had a pEC50 of 6.26.

`CN1CCN(C2=C(Cl)C(=O)C(c3cnc(N4CCCCC4)s3)=C(Cl)C2=O)CC1` gave a pEC50 of 7.68.

`Cc1cccc(N2CCN(C(=O)COc3noc4nc(C)cc(C)c34)CC2C)c1` (configuration not stated) [2-[(4,6-dimethyl-[1,2]oxazolo[5,4-b]pyridin-3-yl)oxy]-1-[3-methyl-4-(3-methylphenyl)piperazin-1-yl]ethanone]: the pEC50 is under 4.52.

With `Cc1[nH]n(-c2ccccc2)c(=S)c1C=NCCCN=Cc1c(C)[nH]n(-c2ccccc2)c1=S`, the pEC50 is 6.28.

`Cc1cccc(N2CCN(C(=O)COc3nsc4nc(C)cc(C)c34)CC2C)c1` (configuration not stated): the pEC50 is 5.50.

As to `COc1ccc(C2=CC(=O)C=CC2=O)cc1` [MLS001029846], the negative logarithm of the EC50 (pEC50) is 6.75.

For `O=C(Cc1csc(N2CCOCC2)n1)NN=Cc1ccc(O)c(O)c1O` [SMR000369439], the pEC50 is 6.42.

As for `Cc1cc(Cl)ccc1/N=c1/ssnc1Cl` [MLS000539990], the pEC50 is 6.90.

Regarding `CCN(CC)S(=O)(=O)c1cccc(C(=O)NN=Cc2ccc(O)c(O)c2O)c1`, the pEC50 is 6.39.

On to `O=C1C(Cl)=C(N2CCCCC2)C(=O)C(Cl)=C1c1cnc(N2CCCCC2)s1` [MLS000550549], for which the pEC50 is 7.11.

In turn, `O=C(COc1ccccc1C(=O)NN=Cc1ccc(O)c(O)c1)NN=Cc1ccc(O)c(O)c1` [N''-[(Z)-(3-hydroxy-4-oxo-1-cyclohexa-2,5-dienylidene)methyl]-2-[2-[[(Z)-(3-hydroxy-4-oxo-1-cyclohexa-2,5-dienylidene)methyl]hydrazo]-2-oxoethoxy]benzohydrazide] had a pEC50 of 6.91.

`Cc1cccc(N2CCN(C(=O)CN3CCc4nc(C)cc(C)c4C3=O)CC2C)c1` (configuration not stated) [KUC103675N] gave a pEC50 of under 4.52.

`CN=c1scc(C)n1N=Cc1ccc(O)c(O)c1O` [(4E)-2,3-dihydroxy-4-[[(4-methyl-2-methylimino-1,3-thiazol-3-yl)amino]methylidene]cyclohexa-2,5-dien-1-one] showed a pEC50 of 6.50.

`CC1(C)OC(=O)C(=Cc2ccc(-c3ccc(S(N)(=O)=O)cc3)o2)C(=O)O1` [SMR000273939] had a pEC50 of 6.15.

Regarding `Cc1cccc(N2CCN(C(=O)Cn3ccc4nc(C)cc(C)c4c3=O)CC2C)c1` (configuration not stated) [2,4-dimethyl-6-[2-[3-methyl-4-(3-methylphenyl)piperazin-1-yl]-2-oxidanylidene-ethyl]-1,6-naphthyridin-5-one], the pEC50 was under 4.52.

Take `CCOc1ccccc1-c1c2cc(O)c(=O)cc-2oc2cc(O)c(O)cc12` [MLS000578271]: the pEC50 (inactive by the depositor's call) is 5.43.

`CCC(=O)NC(c1ccc(C)cc1)c1cc([N+](=O)[O-])c2cccnc2c1O` (configuration not stated) [MLS000553854] showed a pEC50 of 5.36.

For the molecule `CC(=O)OCCCNc1cc(Sc2nc3ccccc3s2)c2nonc2c1[N+](=O)[O-]` [MLS000521052], the pEC50 was 7.07.

The molecule `Cc1cc(C)c2c(=O)n(CC(=O)N3CCN(c4ccccc4)CC3)ccc2n1` [2,4-dimethyl-6-[2-oxidanylidene-2-(4-phenylpiperazin-1-yl)ethyl]-1,6-naphthyridin-5-one] gave a pEC50 of under 4.52.

Take `Cc1[nH]n(-c2ccccc2)c(=S)c1/C=N/c1cccc([N+](=O)[O-])c1` [(4E)-5-methyl-4-[(3-nitroanilino)methylene]-2-phenyl-2-pyrazoline-3-thione]: the pEC50 was 6.66.

On to `NS(=O)(=O)c1ccc(N=NCc2ccc(O)c(O)c2O)c([N+](=O)[O-])c1` [4-[[(E)-(2,3-dihydroxy-4-oxo-1-cyclohexa-2,5-dienylidene)methyl]hydrazo]-3-nitrobenzenesulfonamide], for which the negative-log EC50 (pEC50) is 7.54.

Take `Nc1c(C(=O)NCC2CCCO2)sc2nc3c(c(-c4ccco4)c12)CC/C3=C/c1ccco1` (configuration not stated) [UNM-0000305796]: the pEC50 was 6.31.

Molecule `CCN=c1scc(C)n1N=Cc1ccc(O)c(O)c1O` showed a pEC50 of 6.24.

Consider `Cc1cc(C)c2c(n1)CCN(CC(=O)N1CCN(c3ccccc3)CC1)C2=O` [2,4-dimethyl-6-[2-oxidanylidene-2-(4-phenylpiperazin-1-yl)ethyl]-7,8-dihydro-1,6-naphthyridin-5-one], for which the pEC50 is under 4.52.

`O=c1c2ccccc2sn1-c1ccccc1` [2-phenyl-1,2-benzothiazol-3-one]: the pEC50 is under 4.52.

For `O=c1c2ccccc2sn1-c1ccc(S(=O)(=O)N2CCCC2)cc1` [2-(4-pyrrolidin-1-ylsulfonylphenyl)-1,2-benzothiazol-3-one], the pEC50 was 7.54.

The values above are taken from BindingDB's records for doi:10.7270/Q2M043TQ (Nmmlsc, 2010).
